From patent publication US12257253B2, “Triamterene or nolatrexed for use in the treatment of phenylketonuria” (SOM INNOVATION BIOTECH, S.A., priority 2019, dated 2025)

Tests used:
wild-type PAH [1] = biological target: T1, wild-type PAH (Homo sapiens (Human), UniProt P00439); assay: Isothermal titration calorimetry; type: binding; settings: ITC
Excerpt: 4. Isothermal Titration Calorimetry
Isothermal titration calorimetry (ITC) is a quantitative physical technique used to determine binding affinities of small molecules to proteins or other larger molecules [Freyer M. W. and Lewis E. A., Methods in Cell Biology, 2008, vol. 4, Chapter 4, pages 79-113]. The measurement detects changes of heat generated or absorbed when molecules interact, generate binding kinetics and thermodynamic profile of the molecular interaction. The following parameters are determined: KD (equilibrium dissociation constant), N (stoichiometry of the interaction (mol ligand/mol complex)), ΔH (enthalpy change), ΔG (Gibbs energy), T (temperature) and ΔS (entropy change).
ITC experiments were performed at 25° C. using a MicroCal PEAQ-ITC microcalorimeter (Malvern). PAH proteins were prepared in a HEPES buffer (HEPES 20 mM Hepes, 0.2M NaCl, 1 mM DTT, pH 7.0) containing 5% DMSO, in order to match the final DMSO concentration of the compounds dilutions. The protein concentration used (30 μM) was determined using ultraviolet (UV) absorbance at 280 nm. The compounds ([…]) were prepared using the exact same buffer. Twelve injections of 3 μL of compound/ligand were titrated into the sample cell (containing the protein) over 31 min with a stirring speed of 750 rpm. Data was baseline adjusted by subtracting the background obtained from equivalent injections of compound into the buffer solution. The titration curves were analyzed using MicroCal PEAQ-ITC analytics software (version 1.1.0.1262, Malvern Instruments Ltd.) using a model that assumes a set of identical binding sites where the total heat of the solution is calculated as:
[formula] where n is the number of binding sites, Mt is the total protein concentration in the cell, ΔH is the molar heat of ligand binding, Xt is the total concentration of ligand, and K the binding constant (K=1/KD). The heat released per injection (i), ΔQ(i), is calculated following the equation below, which compensates for the volume that is added in each injection (ΔVi). V0 is the initial volume in the cell.
The parameters, n, K, and ΔH are determined using non-linear square fitting using the Levenberg-Marquardt algorithm.

wild-type PAH [2] = biological target: T1, wild-type PAH; assay: Phenylalanine hydroxylase enzyme activity assay in transfected COS7 cells; type: cell-based; settings: compound 10 μM (sepiapterin 5 μM), 48 h
Description: (§1) 2. Phenylalanine Hydroxylase Enzyme Activity Assay
(§2) This assay was completed in cell culture to analyze the enzyme activity in the presence of compounds. In brief, wild-type or Arg261Gln PAH constructs were transiently expressed in COS7-cells in a 96 well format reflecting the PAH genotype (COS7 cell line has no endogenous PAH). Cells were treated with the compounds at a final concentration of 10 μM and the enzyme activity of PAH was analyzed 48 h after transfection. The effect of the compounds on the residual enzyme activity was determined in comparison to non-treated cells (NCC, only compound solvent final 0.1%). To normalize the cellular background signal non transfected cells (NT control) were treated with compound or solvent equally for 48 h. As a positive control we used sepiapterin, a stable precursor of BH4 (CAS 17094-01-8), stabilized in 100 mM DTT, in a final concentration of 5 μM.
(§3) PAH activities were assayed at 25° C. as previously described (Gersting, S. W., J. Biol. Chem., 2010, 285(40), 30686-30697) with modifications. The standard mixture contained 22.35 mM NaHepes, pH 7.0, […] catalase, 10 μM ferrous ammonium sulphate, and 1 mM L-Phe (L-phenylalanine) final. Assay mixture and cell culture enzyme were pre-incubated for 5 min and the reaction was initiated by the addition of 75 μM BH4 (stabilized in 100 mM dithiothreitol) final, run for 60 min and stopped by acetic acid. The amount of L-tyrosine production was measured and quantified by HPLC, assayed as triplicates.
(§4) The effect of compound on PAH enzyme activity was calculated from triplicates as follows: first the background of the NT cells were subtracted from the transfected cells (treated or NCC) and then the percentage of treated (compound) versus NCC was determined. Enzyme activity greater than 100% represents an increase in the enzyme activity with respect to NCC.

Arg261Gln (R261Q) PAH = Arg261Gln (R261Q) PAH (Homo sapiens (Human), UniProt P00439, R261Q); assay: as above; type: cell-based; settings: compound 10 μM (sepiapterin 5 μM), 48 h
Chain of Arg261Gln (R261Q) PAH (P00439 whole entry R261Q): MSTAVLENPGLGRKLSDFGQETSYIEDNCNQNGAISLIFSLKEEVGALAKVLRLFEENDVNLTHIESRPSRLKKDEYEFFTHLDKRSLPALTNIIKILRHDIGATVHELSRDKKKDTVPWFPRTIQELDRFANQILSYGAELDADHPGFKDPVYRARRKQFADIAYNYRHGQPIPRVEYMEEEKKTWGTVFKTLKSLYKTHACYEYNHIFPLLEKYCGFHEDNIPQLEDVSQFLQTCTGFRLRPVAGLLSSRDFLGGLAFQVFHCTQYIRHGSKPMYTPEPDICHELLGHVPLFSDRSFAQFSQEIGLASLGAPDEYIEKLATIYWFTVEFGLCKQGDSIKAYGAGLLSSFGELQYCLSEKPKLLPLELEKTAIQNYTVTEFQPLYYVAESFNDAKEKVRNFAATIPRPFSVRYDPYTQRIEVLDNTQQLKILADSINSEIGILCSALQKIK
Description: as §1, §2, §3, §4

T1 sequence (P00439 whole entry): as the sequence (P00439 whole entry R261Q) above, with Q261R counted along it

SMILES: Nc1nc(N)c2nc(-c3ccccc3)c(N)nc2n1 [Triamterene, 2,4,7-triamino-6-phenylpteridine]
- Kd (wild-type PAH [1]; 25° C., WT PAH): 3.03 µM
- N (stoichiometry) (wild-type PAH [1]; 25° C., WT PAH): 0.726 ± 0.00 sites
- ΔG (wild-type PAH [1]; 25° C., WT PAH): -7.53 kcal/mol
- ΔH (wild-type PAH [1]; 25° C., WT PAH): -5.54 ± 0.17 kcal/mol
- −TΔS (wild-type PAH [1]; 25° C., WT PAH): -1.99 kcal/mol
- Kd (in words) (wild-type PAH [1]; recombinant PAH): low micromolar range
- PAH enzyme activity (L-Tyrosine formation) WT PAH Mean (wild-type PAH [2]): 118.98 % NCC
- PAH enzyme activity (L-Tyrosine formation) R261Q PAH Mean (Arg261Gln (R261Q) PAH): 161.48 % NCC
